Measurements reported in patent publication US8946439B2, “Amide compounds, compositions and uses thereof” (Evotec AG, priority 2008, dated 2015).
Like-named read-outs stand apart in the source and are kept apart here.

Columns and labels:
[1] = biological target: T1, hP2X2/3H (Homo sapiens, UniProt P56373+Q9UBL9); assay: Calcium uptake assay (P2X antagonist assay), P2X2/3 heteromer; type: cell-based; details: hP2X2/3H
T1 construct: expressed in transfected cells; host or cells: e.g. HEK293 or 1321N1
T1 sequence (Q9UBL9 1-471): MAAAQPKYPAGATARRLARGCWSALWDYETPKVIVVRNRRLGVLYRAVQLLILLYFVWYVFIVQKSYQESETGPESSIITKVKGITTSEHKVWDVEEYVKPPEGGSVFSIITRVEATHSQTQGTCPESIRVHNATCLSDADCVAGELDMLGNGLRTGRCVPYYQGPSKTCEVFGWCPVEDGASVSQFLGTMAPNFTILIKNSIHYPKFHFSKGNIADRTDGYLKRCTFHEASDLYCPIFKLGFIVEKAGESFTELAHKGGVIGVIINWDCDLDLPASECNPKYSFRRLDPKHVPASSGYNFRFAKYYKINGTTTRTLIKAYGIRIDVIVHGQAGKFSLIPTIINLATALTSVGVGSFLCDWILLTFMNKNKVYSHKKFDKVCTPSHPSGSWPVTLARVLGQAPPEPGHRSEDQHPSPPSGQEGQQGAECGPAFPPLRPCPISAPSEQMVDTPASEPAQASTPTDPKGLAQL
T1 sequence (P56373 1-397): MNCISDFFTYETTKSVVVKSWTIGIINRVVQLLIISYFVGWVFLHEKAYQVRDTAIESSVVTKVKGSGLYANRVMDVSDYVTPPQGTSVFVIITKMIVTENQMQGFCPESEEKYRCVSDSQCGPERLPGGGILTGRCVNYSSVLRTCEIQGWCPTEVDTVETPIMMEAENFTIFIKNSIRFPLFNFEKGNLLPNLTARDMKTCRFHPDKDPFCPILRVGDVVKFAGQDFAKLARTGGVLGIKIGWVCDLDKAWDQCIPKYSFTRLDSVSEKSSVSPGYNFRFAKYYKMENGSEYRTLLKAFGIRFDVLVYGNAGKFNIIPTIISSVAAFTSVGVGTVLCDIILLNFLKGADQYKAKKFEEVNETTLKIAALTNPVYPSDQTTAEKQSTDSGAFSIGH
In short: (§1)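 Stably or transiently transfected HEK293 or 1321N1 cells; the heteromer is made by adding P2X3 to a P2X2-stable line, with heteromer function isolated pharmacologically. The peak-minus-baseline FLIPR calcium signal gives % inhibition and a 4-parameter-logistic IC50.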

[2] = biological target: T2, hP2X3 (Homo sapiens, UniProt P56373); assay: Calcium uptake assay (P2X antagonist assay), P2X3 homomer; type: cell-based; details: hP2X3
T2 construct: expressed in transfected cells; host or cells: e.g. HEK293 or 1321N1
T2 sequence (P56373 1-397): T1 sequence (P56373 1-397)
In short: as §1

[3] = Ca influx (calcium uptake assay), read-out: IC50 hP2X2/3H
[4] = Ca influx (calcium uptake assay), read-out: IC50 hP2X3
[5] = calcium uptake assay, read-out: IC50 hP2X2/3H (nM), Ca Influx
[6] = calcium uptake assay, read-out: IC50 hP2X3 (nM), Ca Influx

SMILES | IC50 [1, 3] [nM] | IC50 [2, 4] [nM] | IC50 [1, 5] [nM] | IC50 [2, 6] [nM]
Cc1ccc(-c2cc(OC3CNCC3O)cc(C(=O)N[C@H](C)c3ccc(C)nc3)c2)nc1 (stereo partly drawn) [Compound 339] | 100 to 500 | < 100 | – | –
Cc1ccc(-c2cc(Oc3ncc(CO)s3)cc(C(=O)N[C@H](C)c3ccc(C)nc3)c2)nc1 [Compound 372] | < 100 | < 100 | – | –
Cc1ccc(-c2cc(Oc3ncccn3)cc(C(=O)NCc3cnc(C)nc3)c2)cc1 [Compound 234] | 501 to 1000 | 100 to 500 | – | –
Cc1ccc(-c2cc(C(=O)N[C@H](C)c3cnc(C)nc3)cc(C(O)CO)c2)nc1 (stereo partly drawn) [Compound 356] | 100 to 500 | < 100 | – | –
Cc1ccc(-c2cc(C(=O)NCc3ccc(C)nc3)cc(C(=O)N(C)Cc3ccncc3)c2)cc1 [Compound 162, N3,4′-Dimethyl-N-5-((6-methylpyridin-3-yl)methyl)-N3-(pyridin-4-ylmethyl)biphenyl-3,5-dicarboxamide] | – | – | < 100 | < 100
[2H]C([2H])([2H])c1ccc(-c2cc(C(=O)NCc3ccc(C)nc3)cc(C(=O)N3CCCC3)c2)cc1 [Compound 203, 4′-Methyl-d3-N-((6-methylpyridin-3-yl)methyl)-5-(pyrrolidine-1-carbonyl)biphenyl-3-carboxamide] | < 100 | < 100 | – | –
CCCS(=O)(=O)c1cc(C(=O)NCc2ccc(C)nc2)cc(-c2ccc(C)cc2)c1 [Compound 56] | – | – | < 100 | < 100
Cc1ccc(-c2cc(C(=O)NCc3cccc(-n4cnnc4)c3)cc(C(=O)N3CCCC3)c2)cc1 [Compound 159] | – | – | 100 to 500 | 100 to 500
Cc1ccc(-c2cc(C(=O)NCc3ccc(C)nc3)cc(C(O)CN3CCOCC3CO)c2)cc1 (stereo not drawn) [Compound 390] | < 100 | < 100 | – | –
Cc1ncc([C@@H](C)NC(=O)c2cc(C(=O)N3CCCC3)cc(-c3ccc(Br)cc3)c2)cn1 [Compound 216] | < 100 | < 100 | – | –
COCCOc1cc(C(=O)NCc2cnc(C)nc2)cc(-c2ccc(C)cc2)c1 [Compound 250] | 100 to 500 | < 100 | – | –
Cc1ccc(-c2cc(OCC3CCCO3)cc(C(=O)N[C@H](C)c3ccc(C)nc3)c2)nc1 (stereo partly drawn) [Compound 335] | < 100 | < 100 | – | –
Cc1ccc(-c2cc(C(=O)NCc3ccc(C(F)(F)F)nc3)cc(C(=O)N3CC[C@@H](O)C3)c2)cc1 [Compound 156] | – | – | 100 to 500 | < 100
Cc1ccc(-c2cc(C(=O)NCc3ccc(C)nc3)cc(C(=O)N3CCN(C(C)C)CC3)c2)cc1 [Compound 125] | – | – | 100 to 500 | < 100
Cc1ccc(-c2cc(OCC3CNCCO3)cc(C(=O)N[C@H](C)c3ccc(C)nc3)c2)cc1 (stereo partly drawn) [Compound 325] | 100 to 500 | < 100 | – | –
Cc1ccc(-c2cc(Oc3nc(Cl)cs3)cc(C(=O)N[C@H](C)c3ccc(C)nc3)c2)nc1 [Compound 384] | < 100 | < 100 | – | –
Cc1ccc(-c2cc(C(=O)NCc3cnc(C)nc3)cc(C(=O)N3CC3C)c2)cc1 (stereo not drawn) [Compound 31, 4′-Methyl-5-(2-methylaziridine-1-carbonyl)-N-((2-methylpyrimidin-5-yl)methyl)biphenyl-3-carboxamide] | – | – | 501 to 1000 | < 100
Cc1ccc(-c2cc(OC3CNCC3O)cc(C(=O)N[C@H](C)c3cnc(C)nc3)c2)nc1 (stereo partly drawn) [Compound 355] | > 1000 | < 100 | – | –
Cc1ccc(-c2cc(C(=O)N[C@H](C)c3cnc(C)nc3)cc(S(=O)(=O)C3CCCC3)c2)cc1 [Compound 219, (R)-5-(Cyclopentylsulfonyl)-4′-methyl-N-(1-(2-methylpyrimidin-5-yl)ethyl)biphenyl-3-carboxamide] | < 100 | < 100 | – | –
Cc1ccc(-c2cc(C(=O)N[C@@H](C)CO)cc(S(C)(=O)=O)c2)cc1 [Compound 3, (S)—N-(1-hydroxypronan-2-yl)-4′-methyl-5-(methylsulfonyl)biphenyl-3-carboxamide] | – | – | > 1000 | 100 to 500
Cc1ccc(-c2cc(C(=O)N[C@H](C)c3cnc(C)nc3)cc(C(O)C(C)C)c2)cc1 (stereo partly drawn) [Compound 397] | < 100 | < 100 | – | –
